Laboratory results published in patent publication US7601850B2, “Phenyl-thiophene type vitamin D receptor modulators” (Eli Lilly and Company, priority 2002, dated 2009).
Like-named read-outs stand apart in the source and are kept apart here.

Experiments:
KERtr cells = experiment: Keratinocyte proliferation assay (BrdU incorporation); type: cell-based; conditions: Homo sapiens, Keratinocyte, 72 h, KERtr human skin keratinocytes, 72 hr treatment, read-out: Kera. Prolif. IC50
Experimental: 6. The keratinocyte proliferation assay is described in the “Assay” section of the Description, infra.
5. The Keratinocyte Proliferation Assay
This Assay is indicative for the treatment of psoriasis.
(5) The Keratinocyte Proliferation Assay:
KERtr cells (Human skin keratinocyte transformed with a retrovirus vector, obtained from ATCC) were plated in 96-well flat-bottomed plates (3000 cells/well) in 100 µl keratinocyte serum free medium supplemented with bovine pituitary extract in the absence of EGF (Life Technologies, Rockville, Md.) and incubated at 37° C. for two days. The cells were treated with various concentrations of VDR ligands (ten-fold serial dilution from 10,000 nM to 0.1 nM in triplicate), dissolved in 100 µl keratinocyte serum free medium supplemented with bovine pituitary extract in the absence of EGF and incubated at 37° C. for 72 hr. […] Potency values (IC50) values were determined as the concentration (nM) of compound that elicited a half-maximal response.

rat osteocalcin promoter = experiment: OCN (osteocalcin) promoter assay in RG-15 (ROS 17/2.8) cells; type: cell-based
Outline: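 Rat osteoblast-like RG-15 (ROS 17/2.8) cells stably carry the rat osteocalcin promoter fused to luciferase. They were treated with compounds for 48 h in medium with 2% FBS and 0.01% DMSO. EC50 was derived from luciferase activity in cell lysates.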

[1] = Mouse hypercalcemia assay (six day, serum ionized calcium); type: in vivo
Experimental: 5. The Mouse Hypercalcemia test is described in the “Assay” section of the Description, infra.
4. The Mouse Hypercalcemia Assay
The Mouse Hypercalcemia Assay is a six day hypercalcemia test for toxicity and selectivity. Acceptable test results are levels greater than 300 μg/kg/day. Preferred assay results are levels greater than 1000 μg/kg/day.
(4) Materials and Method for The Mouse Hypercalcemia Assay:
Weanling, virus-antibody-free, five to six weeks old female DBF mice (Harlan, Indianapolis, Ind.) are used for all the studies. Animals are allowed to acclimate to local vivarium conditions for 2 days. […] The animals then are divided into groups with 4-5 mice per group. Different doses of test compounds prepared in 10% Ethanol and 90% sesame oil are administered to mice orally via gavage for 6 days. 1α-25(OH)2D3 0.5 μg/kg/d was also given to one group of mice as the positive control. Serum ionized calcium is evaluated at 6 hours after the last dosing under isoflurane anesthesia by Ciba-Corning Ca++/PH Analyzer, (Model 634, Chiron Diagnostics Corp., East Walpole, Mass.). Raw data of group differences is assessed by analysis of variance (ANOVA) using Fisher's protected least significant difference (PLSD) where the significance level was P<0.05.

Compound: CCC(CC)(c1ccc(OCC(O)C(C)(C)C)c(C)c1)c1cc(C)c(CS(C)(=O)=O)s1 (single isomer, unassigned) [Ex. 11B]
- IC50 (KERtr cells): 216 nM

Compound: CCC(CC)(c1ccc(OCS(C)(=O)=O)c(C)c1)c1cc(C)c(CCC(O)C(C)(C)C)s1 (single isomer, unassigned) [Ex. 15A]
- IC50 (KERtr cells): 76 nM

Compound: CCC(CC)(c1ccc(OCC(=O)O)c(C)c1)c1cc(C)c(CCC(O)C(C)(C)C)s1 (single isomer, unassigned) [Ex. 33A, 3′-[5-(3-hydroxy-4,4-dimethylpentyl)-4-methylthiophen-2-yl]-3′-[4-(carboxylmethoxy)-3-methylphenyl]pentane]
- EC50 (rat osteocalcin promoter): 43.5 nM
- Mouse Hypercal [1]: >9000 µg/kg/day

Compound: CCC(CC)(c1ccc(OCC(=O)Nc2nnn[nH]2)c(C)c1)c1cc(C)c(CCC(O)C(C)(C)C)s1 (single isomer, unassigned) [Ex. 34, 3′-[5-(3-hydroxy-4,4-dimethylpentyl)-4-methylthiophen-2-yl]-3-[4-(tetrazol-5-yl-aminocarbonylmethoxy)-3-methylphenyl]pentane]
- EC50 (rat osteocalcin promoter): 96.8 nM
- Mouse Hypercal [1]: 3000 µg/kg/day

Compound: CCC(CC)(c1ccc(OCC(O)C(C)(C)C)c(C)c1)c1cc(C)c(C(=O)Nc2nnn[nH]2)s1 (single isomer, unassigned) [Ex. 36, 3′-[4-(2-hydroxy-3,3-dimethylbutoxy)-3-methylphenyl]-3′-[5-(tetrazol-5-yl-aminocarbonyl)-4-methylthiophen-2-yl]pentane]
- EC50 (rat osteocalcin promoter): 67.9 nM
- Mouse Hypercal [1]: 2000 µg/kg/day

Compound: CCC(CC)(c1ccc(OCC(O)C(C)(C)C)c(C)c1)c1cc(C)c(C(=O)NCCS(C)(=O)=O)s1 (single isomer, unassigned) [Ex. 39, 5-[1-ethyl-1-[4-(2-hydroxy-3,3-dimethyl-butoxy)-3-methylphenyl]propyl]-3-methylthiophene-2-carboxylic acid (2-methylsulfonyl-ethyl) amide]
- EC50 (rat osteocalcin promoter): 300 nM
- IC50 (KERtr cells): 367 nM

Compound: CCC(CC)(c1ccc(OCC(O)C(C)(C)C)c(C)c1)c1cc(C)c(C(=O)NCC(=O)O)s1 (single isomer, unassigned) [Ex. 48]
- IC50 (KERtr cells): 71.5 nM

Compound: CCC(CC)(c1ccc(OCC(O)C(C)(C)C)c(C)c1)c1cc(C)c(C(=O)N[C@H](C)C(=O)OC)s1 (single isomer, unassigned) [Ex. 66, D-2-[(5-{1-Ethyl-1-[4-(2-hydroxy-3,3-dimethyl-butoxy)-3-methyl-phenyl]-propyl}-3-methyl-thiophene-2-carbonyl)-amino]-propionic acid methyl ester]
- EC50 (rat osteocalcin promoter): 28.4 nM
- IC50 (KERtr cells): 277 nM

Compound: CCC(CC)(c1ccc(OCC(O)C(C)(C)C)c(C)c1)c1ccc(C(=O)O)s1 (single isomer, unassigned) [Ex. 89, 3′-[4-(2-hydroxy-3,3-dimethylbutoxy)-3-methylphenyl]-3′-[5-carboxy-thiophen-2-yl]pentane]
- EC50 (rat osteocalcin promoter; Rattus norvegicus): 314 nM
- IC50 (KERtr cells): 105 nM

Compound: CCC(CC)(c1ccc(OCC(O)CO)c(C)c1)c1ccc(OCC(O)C(C)(C)C)c(C)c1 (centres unmarked) [BB, 3-(4-{1-Ethyl-1-[4-(2-hydroxy-3,3-dimethyl-butoxy)-3-methyl-phenyl]-10 propyl}-2-methyl-phenoxy)-propane-1,2-diol, reference compound]
- Mouse Hypercal μg/Kg/d [1]: >=20 μg/Kg/d

Compound: CCC(CC)(c1ccc(OCC(=O)C(C)(C)C)c(C)c1)c1ccc(OC[C@H](O)C(C)(C)C)c(C)c1 [EE, reference compound]
- Mouse Hypercal [1]: 1000 µg/kg/day

Compound: CCC(CC)(c1ccc(OCC(O)C(C)(C)C)c(C)c1)c1cc(C)c(C(=O)N(C)C)s1 (centres unmarked) [Ex. 4]
- EC50 (rat osteocalcin promoter; Rattus norvegicus): 147 nM
- IC50 (KERtr cells): 122 nM

Compound: CCC(CC)(c1ccc(OCC(O)C(C)(C)C)c(C)c1)c1cc(C)c(C(=O)OC)s1 (centres unmarked) [Ex. 6A]
- IC50 (KERtr cells): 439 nM

Compound: CCC(CC)(c1ccc(OCC(O)C(C)(C)C)c(C)c1)c1cc(C)c(CS(C)(=O)=O)s1 (centres unmarked) [Ex. 10]
- EC50 (rat osteocalcin promoter; Rattus norvegicus): 51.3 nM
- IC50 (KERtr cells): 25 nM

Compound: CCC(CC)(c1ccc(OC[S+](C)[O-])c(C)c1)c1cc(C)c(CC[C@@H](O)C(C)(C)C)s1 (some centres unmarked) [Ex. 16]
- EC50 (rat osteocalcin promoter; Rattus norvegicus): 31 nM
- IC50 (KERtr cells): 257 nM

Compound: CCC(CC)(c1ccc(OS(C)(=O)=O)c(C)c1)c1cc(C)c(CC[C@@H](O)C(C)(C)C)s1 [Ex. 18]
- EC50 (rat osteocalcin promoter; Rattus norvegicus): 11.2 nM
- IC50 (KERtr cells): 24.5 nM

Compound: CCC(CC)(c1ccc(CCC(=O)O)c(C)c1)c1cc(C)c(CCC(O)C(C)(C)C)s1 (centres unmarked) [Ex. 29]
- EC50 (rat osteocalcin promoter; Rattus norvegicus): 8.65 nM
- IC50 (KERtr cells): 4.6 nM

Compound: CCC(CC)(c1ccc(OCC(O)C(C)(C)C)c(C)c1)c1cc(C)c(COCC(=O)O)s1 (centres unmarked) [Ex. 124, 2-(5-{1-ethyl-1-[4-(2-hydroxy-3,3-dimethyl-butoxy)-3-methyl-phenyl]-propyl}-3-methyl-thiophen-2-yl-methoxy)acetic acid]
- EC50 (rat osteocalcin promoter; Rattus norvegicus): 101 nM
- IC50 (KERtr cells): 216 nM

Compound: CCC(CC)(c1ccc(OCC(O)C(C)(C)C)c(C)c1)c1cc(C)c(S(=O)(=O)NCCC(=O)O)s1 (centres unmarked) [Ex. 142]
- IC50 (KERtr cells): 300 nM

Compound: CCC(CC)(c1ccc(OCC(=O)C(C)(C)C)c(C)c1)c1cc(C)c(S(=O)(=O)N(C)CCC(=O)O)s1 [Ex. 145]
- EC50 (rat osteocalcin promoter; Rattus norvegicus): 222 nM
- IC50 (KERtr cells): 702 nM

Compound: CCc1cc(C(CC)(CC)c2ccc(S(=O)(=O)NCC(=O)O)s2)ccc1OCC(O)C(C)(C)C (centres unmarked) [Ex. 155]
- EC50 (rat osteocalcin promoter; Rattus norvegicus): 18.4 nM
- IC50 (KERtr cells): 788 nM

Compound: CCC(CC)(c1ccc(OCC(O)C(C)(C)C)c(C)c1)c1cc(C)c(S(=O)(=O)NC(C)=O)s1 (centres unmarked) [Ex. 158, 5-{1-Ethyl-1-[4-(2-hydroxy-3,3-dimethyl-butoxy)-3-methyl-phenyl]-propyl}-3-methyl-thiophene-2-sulfonic acid acetyl-amide]
- EC50 (rat osteocalcin promoter; Rattus norvegicus): 85 nM
- IC50 (KERtr cells): 500 nM

Compound: CCC(=O)NS(=O)(=O)c1sc(C(CC)(CC)c2ccc(OCC(O)C(C)(C)C)c(C)c2)cc1C (centres unmarked) [Ex. 159, 5-{1-Ethyl-1-[4-(2-hydroxy-3,3-dimethyl-butoxy)-3-methyl-phenyl]-propyl}-3-methyl-thiophene-2-sulfonic acid propionyl-amide]
- EC50 (rat osteocalcin promoter; Rattus norvegicus): 89.7 nM
- IC50 (KERtr cells): 234 nM

Compound: CCC(CC)(c1ccc(OCC(=O)C(C)(C)C)c(C)c1)c1cc(C)c(S(=O)(=O)NC(C)=O)s1 [Ex. 160, 5-{1-[4-(3,3-Dimethyl-2-oxo-butoxy)-3-methyl-phenyl]-1-ethyl-propyl}-3-methyl-thiophene-2-sulfonic acid acetyl-amide]
- EC50 (rat osteocalcin promoter; Rattus norvegicus): 40.3 nM
- IC50 (KERtr cells): 1100 nM

Compound: CCC(CC)(c1ccc(OCC(O)C(C)(C)C)c(C)c1)c1cc(C)c(-c2n[nH]c(=S)o2)s1 (centres unmarked) [Ex. 173]
- IC50 (KERtr cells): 478 nM

Compound: CCC(CC)(c1ccc(CCC(O)C(C)(C)C)c(C)c1)c1cc(C)c(C(=O)NCC(=O)O)s1 (centres unmarked) [Ex. 177, [(5-{1-Ethyl-1-[4-(3-hydroxy-4,4-dimethyl-pentyl)-3-methyl-phenyl]-propyl}-3-methyl-thiophene-2-carbonyl)-amino]-acetic acid]
- EC50 (rat osteocalcin promoter; Rattus norvegicus): 46 nM
- IC50 (KERtr cells): 81.3 nM

Compound: CCC(CC)(c1ccc(CCC(O)C(C)(C)C)c(C)c1)c1cc(C)c(S(=O)(=O)NCC(=O)O)s1 (centres unmarked) [Ex. 179, (5-{1-Ethyl-1-[4-(3-hydroxy-4,4-dimethyl-pentyl)-3-methyl-phenyl]-propyl}-3-methyl-thiophene-2-sulfonylamino)-acetic acid]
- EC50 (rat osteocalcin promoter; Rattus norvegicus): 27.9 nM
- IC50 (KERtr cells): 221 nM

Compound: CCOC(=O)CSCc1sc(C(CC)(CC)c2ccc(OCC(=O)C(C)(C)C)c(C)c2)cc1C [Ex. 183, (5-{1-[4-(3,3-Dimethyl-2-oxo-butoxy)-3-methyl-phenyl]-1-ethyl-propyl}-3-methyl-thiophen-2-ylmethylsulfanyl)-acetic acid ethyl ester]
- EC50 (rat osteocalcin promoter; Rattus norvegicus): 38.6 nM
